The nature of series [1]: Evaluation of pharmacokinetic parameters for Aripiprazole following single oral administration of azipiprazole. It counts as ADME, organism-based. To be noted: human, in vivo, dosed compound id 19, dosed compound name ARIPIPRAZOLE, regimen Single dose, tissue Plasma.
Series [2] can be described thus: Evaluation of pharmacokinetic parameters for Aripiprazole following oral, intravenous or intramuscular administration of azipiprazole. It is filed as ADME, organism-based. The settings on record: human, in vivo, dosed compound id 19, dosed compound name ARIPIPRAZOLE, tissue Plasma.

Molecules are shown by their SMILES.

On to `O=C1CCc2ccc(OCCCCN3CCN(c4cccc(Cl)c4Cl)CC3)cc2N1` [ARIPIPRAZOLE], for which the Tmax in series [1] was 3 to 5 h; in series [2] (im, gender male and female, route intramuscular), 1 h. This compound showed a bioavailability in series [2] (im, at 5 mg, gender male and female, route intramuscular) of 100%. In addition, the Vd in series [2] (route iv, read-out: Vss) came out at 404 L.

The values above are taken from ChEMBL document CHEMBL3832073, “DailyMed|setid=217e52b5-3a7b-4bbe-af3c-b18de7d426c3 | ABILIFY - aripiprazole tablet|Rebel Distributors Corp”.
